Test results taken from patent publication US6448240B1, “Synergistic fungicidal and/or bactericidal composition” (Aventis CropScience, S.A., priority 1997, dated 2002).

Test system: Plasmopara viticola (grapevine downy mildew)
Test: In-vivo test of famoxadone and fosetyl-aluminium on grapevine downy mildew, preventative treatment 5 days before inoculation
Set-up: species or system Plasmopara viticola on Vitis vinifera cv. Chardonnay
Details: 5-day-preventative spray on grapevine cuttings; evaluated 7 days after inoculation; 3 replications
Procedure: Example 1: In-vivo test of the combination of famoxadone and fosetyl-aluminium on Plasmopara viticola (grapevine downy mildew) by preventative treatment 5 days before inoculation. Dispersible granules of 50% compound A (famoxadone) and dispersible granules of 80% compound B (fosetyl-aluminium) are used. Dilute suspensions are prepared from these compositions by diluting them with water, and the two liquids are mixed in such a way that different ratios of the two products famoxadone and fosetyl are obtained. The A/B ratios studied were selected between 1/10 and 1/1, that is to say equalling 0.1-0.2 and 1. Grapevine cuttings (Vitis vinifera), cv. Chardonnay are grown in pots. When these plants are 2 months old (8- to 10-leaf stage, height 10 to 15 cm), they are treated by being sprayed with the suspension above. […] These spores are suspended at 100,000 units per cm^3 of inoculum. Inoculation is performed by spraying the underside of the leaves with the inoculum. The inoculated plants are then incubated for seven days at 20-22° C. and a relative humidity of 90-100% under natural light. The test is evaluated 7 days after inoculation by comparing the plants with the control plants.

Question: How did the “ED70 (effective dose which has a 70% control effect on the disease)” value turn out when `C[C@@]1(c2ccc(Oc3ccccc3)cc2)OC(=O)N(Nc2ccccc2)C1=O` (racemic) [famoxadone, 5-methyl-5-(4-phenoxyphenyl)-3-(phenylamino-2,4-oxazolidinedione)] was run?
Answer: Its value is 2 µg/mL.

Question: What about the “ED90 (effective dose which has a 90% control effect on the disease)” value of the same compound?
Answer: Its value is 5.5 µg/mL.

Question: For `CCO[PH](=O)O` [fosetyl - aluminium, fosetyl-aluminium], which “ED70 (effective dose which has a 70% control effect on the disease)” value is on record?
Answer: Its value is greater than 2000 µg/mL.

Question: What about the “ED90 (effective dose which has a 90% control effect on the disease)” value of the same compound?
Answer: Its value is greater than 2000 µg/mL.
